Legend:
Assay in all cases: Enzyme inhibiting activity of MMPs, fluorogenic peptide substrate
Assay type in all cases: biochemical
[1] = target: T1, MMP-9 (Homo sapiens, UniProt P14780); settings: substrate MOCAc-Pro-Leu-Gly-Leu-A2Pr(DNP)-Ala-Arg-NH2, fluorescent intensity
T1 construct: purchased Calbiochem (EMD/MERCK Biosciences)
In short: (§1)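 Recombinant human enzymes with the fluorogenic substrate MOCAc-Pro-Leu-Gly-Leu-A2Pr(DNP)-Ala-Arg-NH2. Fluorescence was read for enzyme+substrate±inhibitor and substrate±inhibitor blanks.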

[2] = target: T2, MMP-2 (Homo sapiens, UniProt P08253); settings: substrate MOCAc-Pro-Leu-Gly-Leu-A2Pr(DNP)-Ala-Arg-NH2, fluorescent intensity
T2 construct: purchased Calbiochem (EMD/MERCK Biosciences)
T2 sequence (P08253 110-660): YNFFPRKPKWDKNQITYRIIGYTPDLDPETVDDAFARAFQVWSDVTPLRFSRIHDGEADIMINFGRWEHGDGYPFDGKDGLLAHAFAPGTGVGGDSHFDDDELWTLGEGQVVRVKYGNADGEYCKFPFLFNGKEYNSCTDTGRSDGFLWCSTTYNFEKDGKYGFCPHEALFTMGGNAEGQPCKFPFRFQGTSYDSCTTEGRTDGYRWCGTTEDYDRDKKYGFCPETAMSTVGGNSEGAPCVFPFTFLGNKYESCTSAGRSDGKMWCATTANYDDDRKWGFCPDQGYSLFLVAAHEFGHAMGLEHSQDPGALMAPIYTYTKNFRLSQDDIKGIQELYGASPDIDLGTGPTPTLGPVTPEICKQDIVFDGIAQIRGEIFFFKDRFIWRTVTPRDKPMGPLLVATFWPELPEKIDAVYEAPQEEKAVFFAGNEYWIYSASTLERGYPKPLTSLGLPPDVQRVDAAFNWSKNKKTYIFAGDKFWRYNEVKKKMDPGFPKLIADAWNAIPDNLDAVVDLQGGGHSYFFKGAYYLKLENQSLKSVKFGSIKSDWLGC
In short: as §1

[3] = target: T3, MMP-13 (Homo sapiens, UniProt P45452); settings: APMA-activated proenzyme; substrate MOCAc-Pro-Leu-Gly-Leu-A2Pr(DNP)-Ala-Arg-NH2, fluorescent intensity; read-out: IC50 MMP-13
T3 construct: purchased Calbiochem (EMD/MERCK Biosciences)
In short: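 Pro-MMP-13 was activated with 1 mM APMA at 37° C for 2 h in 50 mM Tris-HCl pH 7.6, 0.3 M NaCl, 10 mM CaCl2, 0.005% Brij35. Activity was read by fluorescence using MOCAc-Pro-Leu-Gly-Leu-A2Pr(DNP)-Ala-Arg-NH2 substrate, with enzyme and inhibitor blank corrections. IC50 is the concentration giving 50% inhibition.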

T1 sequence (P14780 94-707): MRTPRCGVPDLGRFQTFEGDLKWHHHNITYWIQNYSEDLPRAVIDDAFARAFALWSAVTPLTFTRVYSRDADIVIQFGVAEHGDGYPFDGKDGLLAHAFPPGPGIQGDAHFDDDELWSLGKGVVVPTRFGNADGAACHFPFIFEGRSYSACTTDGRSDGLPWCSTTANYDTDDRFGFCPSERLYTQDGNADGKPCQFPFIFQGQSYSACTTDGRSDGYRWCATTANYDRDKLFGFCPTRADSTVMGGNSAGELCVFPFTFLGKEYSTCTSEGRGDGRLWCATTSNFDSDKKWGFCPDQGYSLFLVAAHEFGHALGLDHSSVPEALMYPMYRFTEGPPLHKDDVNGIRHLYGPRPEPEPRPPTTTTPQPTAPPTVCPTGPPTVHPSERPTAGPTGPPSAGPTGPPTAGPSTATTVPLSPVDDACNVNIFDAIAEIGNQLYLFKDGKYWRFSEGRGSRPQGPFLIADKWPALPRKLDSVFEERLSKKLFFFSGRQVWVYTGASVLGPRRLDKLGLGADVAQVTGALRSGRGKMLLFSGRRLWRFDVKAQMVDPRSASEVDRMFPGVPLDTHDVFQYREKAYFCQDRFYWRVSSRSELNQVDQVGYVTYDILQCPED

Row | Compound | IC50 [1] | IC50 [2] | IC50 [3]
1 | CC(C)[C@@H](NS(=O)(=O)N1CCN(c2ccc(C#Cc3ccnc(C(=O)NCc4ccc(F)cc4)c3)cc2)CC1)C(=O)O [III-152, (R)-2-(4-{4-[2-(4-fluorobenzylcarbamoyl)-pyridin-4-ylethynyl]-phenyl}-piperazine-1-sulfonylamino)-3-methylbutanoic acid] | > 10000 nM | 1000 to 10000 nM | 8 nM
2 | B.CC(C)[C@@H](NS(=O)(=O)N1CCN(c2ccc(C#Cc3ccnc(C(=O)NCc4ccc(CN(C)C)cc4)c3)cc2)CC1)C(=O)O [III-153, (R)-2-(4-{4-[2-(4-dimethylaminomethylbenzylcarbamoyl)-pyridin-4-ylethynyl]-phenyl}-piperazine-1-sulfonylamino)-3-methylbutanoic acid borane complex] | > 10000 nM | 1000 to 10000 nM | 4 nM
3 | CC(C)[C@@H](NS(=O)(=O)N1CCN(c2ccc(C#Cc3ccnc(C(=O)NCc4ccc(C(C)(C)C)cc4)c3)cc2)CC1)C(=O)O [III-154, (R)-2-(4-{4-[2-(4-tert-butylbenzylcarbamoyl)-pyridin-4-ylethynyl]-phenyl}-piperazine-1-sulfonylamino)-3-methylbutanoic acid] | > 10000 nM | > 10000 nM | 21 nM
4 | CC(C)[C@@H](NS(=O)(=O)N1CCN(c2ccc(C#Cc3ccnc(C(=O)NCc4ccc(Cl)c(Cl)c4)c3)cc2)CC1)C(=O)O [III-156, (R)-2-(4-{4-[2-(3,4-dichlorobenzylcarbamoyl)-pyridin-4-ylethynyl]-phenyl}-piperazine-1-sulfonylamino)-3-methylbutanoic acid] | > 10000 nM | 1000 to 10000 nM | 10 nM
5 | CC(C)[C@@H](NS(=O)(=O)N1CCN(c2ccc(C#Cc3ccnc(C(=O)NCc4cc(Cl)cc(Cl)c4)c3)cc2)CC1)C(=O)O [III-157, (R)-2-(4-{4-[2-(3,5-dichlorobenzylcarbamoyl)-pyridin-4-ylethynyl]-phenyl}-piperazine-1-sulfonylamino)-3-methylbutanoic acid] | > 10000 nM | > 10000 nM | 19 nM
6 | COc1ccc(CNC(=O)c2cc(/C=C/c3ccc(N4CCN(S(=O)(=O)N[C@@H](C(=O)O)C(C)C)CC4)cc3)ccn2)cc1 [III-161, (R)-2-[4-(4-{(E)-2-[2-(4-methoxybenzylcarbamoyl)-pyridin-4-yl]-vinyl}-phenyl)-piperazine-1-sulfonylamino]-3-methylbutanoic acid] | > 10000 nM | 1000 to 10000 nM | 5 nM
7 | COc1ccc(Cn2ccc3ccc(C#Cc4ccc(N5CCN(S(=O)(=O)N[C@@H](C(=O)O)C(C)C)CC5)cc4)cc3c2=O)cc1 [III-167, (R)-2-(4-{4-[2-(4-methoxybenzyl)-1-oxo-1,2-dihydroisoquinolin-7-ylethynyl]-phenyl}-piperazine-1-sulfonylamino)-3-methylbutanoic acid] | > 10000 nM | > 10000 nM | 14 nM
8 | CC(C)[C@@H](NS(=O)(=O)N1CCN(c2ccc(C#Cc3ccc4ccn(Cc5ccncc5)c(=O)c4c3)cc2)CC1)C(=O)O [III-169, (R)-3-methyl-2-{4-[4-(1-oxo-2-pyridin-4-ylmethyl-1,2-dihydroisoquinolin-7-ylethynyl)-phenyl]-piperazine-1-sulfonylamino}-butanoic acid] | > 10000 nM | 1000 to 10000 nM | 3 nM
9 | CC(C)[C@@H](NS(=O)(=O)N1CCN(c2ccc(C#Cc3ccc4ccn(Cc5ccc(S(C)(=O)=O)cc5)c(=O)c4c3)cc2)CC1)C(=O)O [III-170, (R)-2-(4-{4-[2-(4-methanesulfonylbenzyl)-1-oxo-1,2-dihydroisoquinolin-7-ylethynyl)-phenyl]-piperazine-1-sulfonylamino}-3-methylbutanoic acid] | > 10000 nM | 1000 to 10000 nM | 4 nM
10 | CC(C)[C@@H](NS(=O)(=O)N1CCN(c2ccc(C#Cc3ccnc(C(=O)NCc4ccc(N5CCCCC5)cc4)c3)cc2)CC1)C(=O)O [III-171, (R)-3-methyl-2-(4-{4-[2-(4-piperidin-1-ylbenzylcarbamoyl)-pyridin-4-ylethynyl]-phenyl}-piperazine-1-sulfonylamino)-butanoic acid] | > 10000 nM | 1000 to 10000 nM | 7 nM
11 | COc1ccc(CNC(=O)c2cc(C#Cc3ccc(N4CCN(S(=O)(=O)N[C@@H](C(=O)O)C(C)C)CC4)cc3)cn(C)c2=O)cc1 [III-172, (R)-2-(4-{4-[5-(4-methoxybenzylcarbamoyl)-1-methyl-6-oxo-1,6-dihydropyridin-3-yllethynyl]-phenyl}-piperazine-1-sulfonylamino)-3-methylbutanoic acid] | > 10000 nM | > 10000 nM | 10 nM
12 | CC(C)[C@@H](NS(=O)(=O)N1CCN(c2ccc(C#Cc3ccnc(C(=O)NCc4ccccc4)c3)cc2)CC1)C(=O)O [III-177, (R)-2-{4-[4-(2-benzylcarbamoylpyridin-4-ylethynyl)-phenyl]-piperazine-1-sulfonylamino}-3-methylbutanoic acid] | > 10000 nM | 1000 to 10000 nM | 9 nM
13 | CC(C)[C@@H](NS(=O)(=O)N1CCN(c2ccc(C#Cc3ccnc(C(=O)NCc4ccc(F)c(Cl)c4)c3)cc2)CC1)C(=O)O [III-179, (R)-2-(4-{4-[2-(3-chloro4-fluorobenzylcarbamoyl)-pyridin-4-ylethynyl]-phenyl}-piperazine-1-sulfonylamino)-3-methylbutanoic acid] | > 10000 nM | > 10000 nM | 12 nM
14 | CC(C)[C@@H](NS(=O)(=O)N1CCN(c2ccc(C#Cc3ccnc(C(=O)NCc4cccc(F)c4)c3)cc2)CC1)C(=O)O [III-181, (R)-2-(4-{4-[2-(3-fluorobenzylcarbamoyl)-pyridin-4-ylethynyl]-phenyl}-piperazine-1-sulfonylamino)-3-methylbutanoic acid] | > 10000 nM | 1000 to 10000 nM | 6 nM
15 | Cc1cc(CNC(=O)c2cc(C#Cc3ccc(N4CCN(S(=O)(=O)N[C@@H](C(=O)O)C(C)C)CC4)cc3)ccn2)ccc1F [III-184, (R)-2-(4-{4-[2-(4-fluoro-3-methylbenzylcarbamoyl)-pyridin-4-ylethynyl]-phenyl}-piperazine-1-sulfonylamino)-3-methylbutanoic acid] | > 10000 nM | 1000 to 10000 nM | 14 nM
16 | Cc1cccc(CNC(=O)c2cc(C#Cc3ccc(N4CCN(S(=O)(=O)N[C@@H](C(=O)O)C(C)C)CC4)cc3)ccn2)c1 [III-186, (R)-3-methyl-2-(4-{4-[2-(3-methylbenzylcarbamoyl)-pyridin-4-ylethynyl]-phenyl}-piperazine-1-sulfonylamino)-butanoic acid] | > 10000 nM | 1000 to 10000 nM | 12 nM
17 | CC(C)[C@@H](NS(=O)(=O)N1CCN(c2ccc(C#Cc3ccnc(C(=O)NCc4cccs4)c3)cc2)CC1)C(=O)O [III-187, (R)-3-methyl-2-[4-(4-{2-[(thiophen-2-ylmethyl)-carbamoyl]-pyridin-4-ylethynyl}-phenyl)-piperazine-1-sulfonylamino]-butanoic acid] | > 10000 nM | 1000 to 10000 nM | 7 nM
18 | CC(C)[C@@H](NS(=O)(=O)N1CCN(c2ccc(C#Cc3ccnc(C(=O)NCc4ccc(F)c(F)c4)c3)cc2)CC1)C(=O)O [III-189, (R)-2-(4-{4-[2-(3.4-difluorobenzylcarbamoyl)-pyridin-4-ylethynyl]-phenyl}-piperazine-1-sulfonylamino)-3-methylbutanoic acid] | > 10000 nM | 1000 to 10000 nM | 5 nM
19 | CC(C)[C@@H](NS(=O)(=O)N1CCN(c2ccc(C#Cc3ccnc(C(=O)NCc4cc(F)cc(F)c4)c3)cc2)CC1)C(=O)O [III-192, (R)-2-(4-{4-[2-(3,5-difluorobenzylcarbamoyl)-pyridin-4-ylethynyl]-phenyl}-piperazine-1-sulfonylamino)-3-methylbutanoic acid] | > 10000 nM | 1000 to 10000 nM | 8 nM
20 | Cc1ccc(CNC(=O)c2cc(C#Cc3ccc(N4CCN(S(=O)(=O)N[C@@H](C(=O)O)C(C)C)CC4)cc3)ccn2)cc1 [III-193, (R)-3-methyl-2-(4-{4-[2-(4-methylbenzylcarbamoyl)-pyridin-4-ylethynyl]-phenyl}-piperazine-1-sulfonylamino)-butanoic acid] | > 10000 nM | 1000 to 10000 nM | 5 nM
21 | CC(C)[C@@H](NS(=O)(=O)N1CCN(c2ccc(C#Cc3ccnc(C(=O)NCc4ccc(C(F)(F)F)cc4)c3)cc2)CC1)C(=O)O [III-194, (R)-3-methyl-2-(4-{4-[2-(4-trifluoromethylbenzylcarbamoyl)-pyridin-4-ylethynyl]-phenyl}-piperazine-1-sulfonylamino)-butanoic acid] | > 10000 nM | > 10000 nM | 26 nM

Source: patent US20100099676A1 (SHIONOGI & CO., LTD., priority 2006, published 2010)
